Positions of bridges follow the written chain, without caps; N, C: chain ends. Non-standard residues stand in square brackets, D forms with d. Residues, ends and D or L forms follow the SMILES beside them. Phe(4-F) = N[C@@H](Cc1ccc(F)cc1)C(=O)O; Gla = N[C@@H](CC(C(=O)O)C(=O)O)C(=O)O; Cha = N[C@@H](CC1CCCCC1)C(=O)O

Series [1] has as its target IL-6-induced pSTAT3 in U937 cells (Homo sapiens, UniProt P05231). Put plainly: pSTAT3 HTRF assay in U937 cells. It counts as cell-based.
Protocol: Peptides were serially diluted in medium containing 10% fetal bovine serum (FBS)/4% DMSO, then added to recombinant IL-6 (Xtal Biostructures, Inc., Natick, MA) at 28.2 ng/mL and the resulting plate was incubated at room temperature with shaking for 2.5 h at 37°C. […] After incubation for 12 min at 37°C the cells were centrifuged at 4°C (1400 rpm for 5 min) and the media was removed from the plates. Cells were placed on ice and 50 μL lysis buffer (Cisbio Assays, Bedford MA) was added. Phosphorylation of STAT3 was detected as described by the provider (Cisbio Assays). Briefly, cells were lysed for 30 min at room temperature and then 16 μL of lysates was added to a 384-well Proxiplate (Perkin Elmer, Waltham, MA). Anti-STAT3-d2+anti pSTAT-3-K detection cocktail (4μL; Cisbio Assays) was then added to the wells and the plate covered with a plate sealer and returned to 4°C overnight. Plates were then read with an Envision plate reader at ex 340, em 615 and 665 nm. […] These mixtures were then added to U937 cells for 15 min at 37°C and pSTAT3 was detected as described above.
In the next series the target is T1, IL-6/IL-6R (Homo sapiens, UniProt P05231).
T1 construct: purchased PeproTech
The experiment in a line: IL-6 – IL-6R competition ELISA. To be noted: compared to PN-1454. It counts as binding.

The nature of series [2]: Comparative PK of PEGylated peptides in rats. It counts as in vivo. To be noted: rat; male rats, single SC dose 0.23 μmol/kg, plasma, LC-MS/MS, non-compartmental; read-out: PK half-life (t1/2) (converted). How it is done: Male rats for pharmacokinetic studies were obtained from Harlan Laboratories (South Easton, MA. […] For all time points, blood samples were collected via retro-orbital eye bleed or exsanguination via abdominal aorta into tubes containing K2EDTA and were processed into plasma, which was placed in Eppendorf Protein LoBind tubes and stored frozen at approximately -70°C until quantitative bioanalysis.
The dosing solutions were formulated just prior to administration, in sterile 1X PBS with 0.1% BSA. Plasma sample extraction was performed by aliquoting 100 μL of each rat plasma sample into a standard 96-well plate. To each well, 400 μL of 5% formic acid in acetonitrile (containing 200 ng/mL of internal standard) was added. The plate was vortexed at high speed for approximately 10 min and then centrifuged for 15 min, 4700 x g at 4°C. Supernatant (425 μL) was transferred into a clean 96-well plate and evaporated to dryness under nitrogen at approximately 50°C. The extracts were then reconstituted in 50 μL of 1% formic acid in 60% acetonitrile.
Reconstituted extracts (5 μL) were analyzed by liquid chromatography-tandem mass spectrometry (LC-MS/MS) with positive electrospray ionization (QTrap 5500, AB SCIEX, Framingham, MA). […]

The test system of the next series is IL-6. To be noted: cited from earlier work. How it is done: The inhibitory potency of PN-2921 was assessed in human whole blood ...

Chain of IL-6-induced pSTAT3 in U937 cells (P05231 30-212): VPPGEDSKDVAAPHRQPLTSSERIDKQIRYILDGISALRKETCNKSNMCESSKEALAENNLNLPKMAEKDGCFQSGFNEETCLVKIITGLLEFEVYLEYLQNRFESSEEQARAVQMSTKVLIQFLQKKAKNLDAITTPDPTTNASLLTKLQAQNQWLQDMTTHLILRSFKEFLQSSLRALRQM
T1 sequence (P05231 30-212): as above
Protocol for IL-6/IL-6R: Peptides were initially evaluated using a competitive enzyme-linked immunosorbent assay (ELISA). High binding 96-well microtiter plates (half-area, Corning Life Sciences, Corning, NY)) were coated with 0.1 μg per well of IL-6R (PeproTech, Rocky Hill, NJ) overnight at 4°C. The wells were then blocked for 2 h with a 1% BSA (Sigma, St. Louis, MO) solution containing 0.1% Tween-20 (Amresco, Solon, OH) and subsequently washed with wash buffer (PBS containing 0.1% Tween-20). Peptides were serially diluted in assay buffer (0.1% BSA, 0.05% Tween-20 in PBS) and incubated with a 50 pM biotinylated IL-6 (PeproTech) for 30 min at room temperature. This mixture was then transferred to an assay plate, and the plate incubated for 1 h. The plate was washed with wash buffer, and presence of bound IL-6 detected through addition of streptavidin poly-horseradish peroxidase conjugate (Pierce, Rockford IL). Plates were developed using a TMB substrate kit (Pierce) and stopped with 2N H2SO4. Inhibition of complex formation was measured as a reduction in absorbance at 450 nm.

Regarding `CC[C@H](C)[C@@H]1NC(=O)[C@@H](NC(=O)[C@H](CC(=O)O)NC(=O)[C@H](CC2CCCCC2)NC(=O)[C@H](CC(=O)O)NC(=O)[C@H](CO)NC(=O)[C@H](CCC(N)=O)NC(C)=O)CSSC[C@@H](C(=O)N[C@@H](CCC(=O)O)C(=O)O)NC(=O)[C@H](CCC(=O)O)NC(=O)[C@H](CC(=O)O)NC(=O)[C@H](CC(N)=O)NC(=O)[C@H]([C@@H](C)CC)NC(=O)[C@H](CCCCN)NC(=O)[C@H](CC(C(=O)O)C(=O)O)NC(=O)[C@H]([C@@H](C)CC)NC(=O)[C@H](CCCNC(=N)N)NC(=O)[C@H](CCC(=O)O)NC(=O)[C@H](Cc2c[nH]c3ccccc23)NC(=O)[C@H](CCCNC(=N)N)NC(=O)[C@H](CCC(N)=O)NC(=O)[C@H](CCC(=O)O)NC(=O)[C@H](CCC(=O)O)NC(=O)[C@H]([C@@H](C)O)NC(=O)[C@H](CC(C)C)NC(=O)[C@H](CC(N)=O)NC(=O)[C@@H]2CCCN2C(=O)[C@H](CC(=O)O)NC(=O)[C@H](CC(C)C)NC(=O)[C@H](Cc2ccc(F)cc2)NC(=O)[C@H](C)NC(=O)[C@H](CCC(=O)O)NC(=O)[C@H](CC(C)C)NC(=O)[C@H](CC(C)C)NC(=O)[C@H](CCCNC(=N)N)NC(=O)[C@H](Cc2c[nH]cn2)NC1=O` [PN-2519] (Ac-QSD[Cha]DCIHRLLEA[Phe(4-F)]LDPNLTEEQRWERI[Gla]KINDECE-OH; disulfide 6-35), in series [1] (compared to PN-1974, U937 pSTAT3), the “fold improvement in cell-based activity” value is listed as ~ 1000 fold. For the same compound, in series [1] (effect of PEG molecular weight, PEGylation at position 29), the “antagonist activity in the IL-6 pSTAT3 assay in U937 cells (Fig 2C)” value is “comparable”.

Regarding `CC[C@H](C)[C@@H]1NC(=O)[C@H](CCCCN)NC(=O)CNC(=O)[C@H](Cc2c[nH]c3ccccc23)NC(=O)[C@H](CCCNC(=N)N)NC(=O)[C@H](CCC(N)=O)NC(=O)[C@H](CCC(=O)O)NC(=O)[C@H](CO)NC(=O)[C@H](CC(N)=O)NC(=O)[C@H](CC(C)C)NC(=O)[C@H](CC(N)=O)NC(=O)[C@@H]2CCCN2C(=O)[C@H](CC(=O)O)NC(=O)[C@H](CC(C)C)NC(=O)[C@H](Cc2ccccc2)NC(=O)[C@H](C)NC(=O)[C@H](CCC(=O)O)NC(=O)[C@H](CC(C)C)NC(=O)[C@H](CC(C)C)NC(=O)[C@H](CCCNC(=N)N)NC(=O)[C@H](CCCNC(=N)N)NC(=O)[C@H]([C@@H](C)CC)NC(=O)[C@@H](NC(=O)[C@H](CCC(N)=O)NC(=O)[C@H](CC(C)C)NC(=O)[C@H](CC(N)=O)NC(=O)[C@H](Cc2ccccc2)NC(C)=O)CSSC[C@@H](C(N)=O)NC(=O)[C@H](CC(=O)O)NC(=O)[C@H](CC(=O)O)NC(=O)[C@H](CC(N)=O)NC(=O)[C@H]([C@@H](C)CC)NC(=O)[C@H](CO)NC(=O)[C@H](CC(=O)O)NC1=O` [PN-1484] (Ac-FNLQCIRRLLEAFLDPNLNSEQRWGKIDSINDDC-NH2; disulfide 5-34 (inferred)), the “fold improvement in IC50 in the competitive ELISA” value on IL-6/IL-6R is on record as ~ 20 fold.

As to `CC[C@H](C)[C@@H]1NC(=O)[C@@H](NC(=O)[C@H](CC(=O)O)NC(=O)[C@H](CC2CCCCC2)NC(=O)[C@H](CC(=O)O)NC(=O)[C@H](CO)NC(=O)[C@H](CCC(N)=O)NC(C)=O)CSSC[C@@H](C(=O)N[C@@H](CCC(=O)O)C(=O)O)NC(=O)[C@H](CCC(=O)O)NC(=O)[C@H](CC(=O)O)NC(=O)[C@H](CC(N)=O)NC(=O)[C@H]([C@@H](C)CC)NC(=O)[C@H](CCCCN)NC(=O)[C@H](CC(C(=O)O)C(=O)O)NC(=O)[C@H]([C@@H](C)CC)NC(=O)[C@H](CCCCN)NC(=O)[C@H](CCC(=O)O)NC(=O)[C@H](Cc2c[nH]c3ccccc23)NC(=O)[C@H](CCCNC(=N)N)NC(=O)[C@H](CCC(N)=O)NC(=O)[C@H](CCC(=O)O)NC(=O)[C@H](CCC(=O)O)NC(=O)[C@H]([C@@H](C)O)NC(=O)[C@H](CC(C)C)NC(=O)[C@H](CC(N)=O)NC(=O)[C@@H]2CCCN2C(=O)[C@H](CC(=O)O)NC(=O)[C@H](CC(C)C)NC(=O)[C@H](Cc2ccc(F)cc2)NC(=O)[C@H](C)NC(=O)[C@H](CCC(=O)O)NC(=O)[C@H](CC(C)C)NC(=O)[C@H](CC(C)C)NC(=O)[C@H](CCCNC(=N)N)NC(=O)[C@H](Cc2c[nH]cn2)NC1=O` [PN-2365] (Ac-QSD[Cha]DCIHRLLEA[Phe(4-F)]LDPNLTEEQRWEKI[Gla]KINDECE-OH; disulfide 6-35), the half-life in series [2] is 204 min.

Regarding “siltuximab: monoclonal antibody specific for IL-6”, the potency result in the series on IL-6 is “pM range”.

(Values after PMC4640888, “Discovery and Characterization of a Potent Interleukin-6 Binding Peptide with Neutralizing Activity In Vivo” (PLoS ONE, 2015).)
